Legend:
[1] = test system: marrow cells (mononuclear cell fraction); assay: Proliferation-stimulating effect on marrow cell of mouse (3H-TdR uptake); format: cell-based, mouse (BALB/c); conditions: percentage of control, 72 h; for activity at 1 µg/mL: 10^0 μg/ml; for activity at 0.1 µg/mL: 10^-1 μg/ml; for activity at 0.01 µg/mL: 10^-2 μg/ml; for activity at 0.001 µg/mL: 10^-3 μg/ml
Outline: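 Mononuclear marrow cell fraction from 7-week-old female BALB/c mouse thigh bone, 1.5×10^6 cells/ml in 10% FCS RPMI 1640, cultured with test sample 72 h at 37° C. ³H-thymidine (0.5 μCi/well) then added for 8 h; nuclear ³H-TdR uptake counted by liquid scintillation.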

[2] = test system: mononuclear cell fraction of human umbilical cord blood; assay: Proliferation-stimulating effect on mononuclear cell fraction of human umbilical cord blood (3H-TdR uptake); format: cell-based; conditions: 96 h, percentage of control, 4 days; for activity at 0.1 µg/mL: 10^-1 μg/ml; for activity at 0.01 µg/mL: 10^-2 μg/ml; for activity at 0.001 µg/mL: 10^-3 μg/ml
Description: Pharmacological Test 3: Proliferation-Stimulating Effect on Mononuclear Cell Fraction of Human Umbilical Cord Blood
It is extremely difficult to obtain human marrow cells. In addition, human umbilical cord blood contains stem cells (Nakahata, T. & Ogwa, M., J. Clin. Inveet. 70, 1324-1328 (1982)), so that it can be a good source of hematopoietic stem/progenitor cell supply (H. E. Broxneyer et al, Proc. Natl. Acad. Sci. USA, 86, 3828-3832 (1989)). For these reasons, the effect on human was examined by using, instead of human marrow cells, human umbilical cord blood.
To human umbilical cord blood was added an equal amount of RPMI 1640. This was placed on a Lymphoprep and centrifugal. The mononuclear cell fraction (MNF) thus obtained was used in the following experiment.
The concentration of the MNF was adjusted to 1×10^6 cells/ml by using an RPMI 1640 added with 10% auto-blood plasma as a culture medium. 10 μl/well of a sample with a predetermined concentration and 100 μl/well of the above-prepared MNF were placed on a round-bottomed 96 well plate and incubated under the conditions of 37° C. and 5% CO2 for 4 days. Thereafter, 0.5 μCi/well of ^3 H-TdR was added. After 8 hour incubation, the cells were harvested, and the amount of the 3H-TdR taken in the nuclei was measured by a liquid scintillation counter.

[3] = Life-span-increasing effect on irradiation of a lethal dose of radiation; format: in vivo, mouse (BDF1); conditions: 10 mice/group, 9 Gy X-ray, 0.1 mg/kg i.v. days 0, 4, 8
Method: Pharmacological Test 4: Life-Span-Increasing Effect on Irradiation of a Lethal Dose of Radiation
An experiment was carried out by using 6 week old female BDF1 mice purchased from Japan SLC Co., Ltd., with 10 mice made one group.
The entire bodies of the entire body of the mice were irradiated with 9 Gy of X-rays by using a Hitachi X-ray irradiator (MBR-1520R), and the day on which the X-ray was irradiated was referred to as "day 0".

blood platelets [4] = assay: Thrombocytopenia-inhibiting effect in X-ray-irradiated mice; format: in vivo, mouse (BDF1); conditions: 10 days after 5 Gy X-ray; 0.1 mg/kg i.v. within 2 h; mean ± SD; vehicle per series 10.3, 6.8, 6.7; non-treatment 68.2, 96.9, 73.0
Outline: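 Female BDF1 mice, 6 weeks old, six per group, given 5 Gy whole-body X-ray, then 0.1 mg/kg i.v. via tail vein within 2 hours. Platelets counted by hemocytometer in fundus-vein blood 10 days later; untreated and vehicle groups run alongside.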

blood platelets [5] = assay: Blood-platelet-increasing effect upon normal mouse; format: in vivo, mouse (BDF1); conditions: normal mice; 6 days after 0.1 mg/kg i.v.; mean ± SD; vehicle per series 58.2, 63.0, 71.1
Outline: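 Female BDF1 mice, 6 weeks old (5 per group), received test sample at 0.1 mg/kg into the caudal vein. Six days later, fundus-vein blood was taken and platelets counted on a multi-channel hemocytometer, compared against vehicle-treated animals.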

[6] = day 10, controls per series 10, 10, 10, 10, 10, 8
[7] = day 15, controls per series 8, 9, 5, 5, 7, 1
[8] = day 20, controls per series 4, 5, 1, 2, 3, 0
[9] = day 25, controls per series 3, 3, 0, 0, 2, 0
[10] = day 30, controls per series 1, 1, 0, 0, 0, 0

Row | Structure (SMILES) | activity at 1 µg/mL [1] | activity at 0.1 µg/mL [1] | activity at 0.01 µg/mL [1] | activity at 0.001 µg/mL [1] | activity at 0.1 µg/mL [2] | activity at 0.01 µg/mL [2] | activity at 0.001 µg/mL [2] | Number of Surviving Mice [3, 6] | Number of Surviving Mice [3, 7] | Number of Surviving Mice [3, 8] | Number of Surviving Mice [3, 9] | Number of Surviving Mice [3, 10] | Number of Surviving Mice ([3]; day 35, all controls 0) | Number of Surviving Mice ([3]; day 40, all controls 0) | Number of Blood Platelets (blood platelets [4]) | Number of Blood Platelets (blood platelets [5])
1 | CCCCCCCCCCCCCCCCCCCCCCCCCC(=O)N[C@@H](CO[C@H]1O[C@H](CO)[C@H](O)[C@H](O)[C@H]1O)[C@H](O)[C@H](O)CCCCCCCCCCCCC [Compound 20, (2S,3S,4R)-1-(α-D-galactopyranosyloxy)-2-hexacosanoylamino-3,4-heptadecanediol] | 982% | 466% | 201% | 67% | 692% | 474% | 507% | 10 mice | 8 mice | 7 mice | 7 mice | 6 mice | 6 mice | 6 mice | 19.8 ± 7.3 × 10^4 /μl | 110.9 ± 10.6 × 10^4 /μl
2 | CCCCCCCCCCCCCCCCCCCCCC[C@@H](O)C(=O)N[C@@H](CO[C@H]1O[C@H](CO)[C@H](O)[C@H](O)[C@H]1O)[C@H](O)[C@H](O)CCCCCCCCCCCCCC [Compound 21, (2S,3S,4R)-1-(α-D-galactopyranosyloxy) -2-[(R) -2-hydroxytetracosanoylamino]-3,4-octadecanediol] | 799% | 244% | 96% | 84% | 552% | 530% | 305% | 10 mice | 10 mice | 10 mice | 10 mice | 10 mice | 10 mice | 10 mice | 22.7 ± 3.7 × 10^4 /μl | 94.8 ± 7.7 × 10^4 /μl
3 | CCCCCCCCCCCCCCCCCCCCCC[C@@H](O)C(=O)N[C@@H](CO[C@H]1O[C@H](CO)[C@H](O)[C@H](O)[C@H]1O)[C@H](O)[C@H](O)CCCCCCCCCCCCC [Compound 22, (2S,3S,4R)-1-(α-D-galactopyranosyloxy)-2-[(R)-2-hydroxytetracosanoylamino]-3,4-heptadecanediol] | 613% | 226% | 116% | 104% | 362% | 357% | 204% | 10 mice | 10 mice | 10 mice | 9 mice | 8 mice | 8 mice | 8 mice | 25.4 ± 5.1 × 10^4 /μl | 104.1 ± 7.7 × 10^4 /μl
4 | CCCCCCCCCCCCCCCCCCCCCC[C@@H](O)C(=O)N[C@@H](CO[C@H]1O[C@H](CO)[C@H](O)[C@H](O)[C@H]1O)[C@H](O)[C@H](O)CCCCCCCCCCC [Compound 23, (2S,3S,4R)-1-(α-D-galactopyranosyloxy)-2-[(R)-2-hydroxytetracosanoylamino]-3,4-pentadecanediol] | 761% | 312% | 89% | 81% | 402% | 344% | 197% | 10 mice | 10 mice | 9 mice | 9 mice | 9 mice | 9 mice | 9 mice | 21.0 ± 5.9 × 10^4 /μl | 108.7 ± 14.8 × 10^4 /μl
5 | CCCCCCCCCCCCCCCCCCCCCCCC[C@@H](O)C(=O)N[C@@H](CO[C@H]1O[C@H](CO)[C@H](O)[C@H](O)[C@H]1O)[C@H](O)[C@H](O)CCCCCCCCCCCCCCCC [Compound 27, (2S,3S,4R)-1-(α-D-galactopyranosyloxy)-2-[(R)-2-hydroxyhexacosanoylamino]-3,4-icosanediol] | – | 220% | 165% | 156% | 450% | 486% | 344% | 10 mice | 10 mice | 9 mice | 9 mice | 9 mice | 9 mice | 9 mice | 16.0 ± 4.1 × 10^4 /μl | 101.3 ± 7.1 × 10^4 /μl
6 | CCCCCCCCCCCCCCCCCCCCCC[C@H](O)C(=O)N[C@@H](CO[C@H]1O[C@H](CO)[C@H](O)[C@H](O)[C@H]1O)[C@H](O)[C@H](O)CCCCCCCCCCCCC [Compound 28, (2S,3S,4R)-1-(α-D-galactopyranosyloxy)-2-[(S)-2-hydroxytetracosanoylaminol]-3,4-heptadecanediol] | – | 192% | 170% | 130% | 356% | 331% | 182% | 10 mice | 10 mice | 10 mice | 8 mice | 8 mice | 8 mice | 8 mice | 20.4 ± 4.5 × 10^4 /μl | 103.6 ± 8.8 × 10^4 /μl
7 | CCCCCCCCCCCCCCCCCCCCCCCCCCCC(=O)N[C@@H](CO[C@H]1O[C@H](CO)[C@H](O)[C@H](O)[C@H]1O)[C@H](O)[C@H](O)CCCCCCCCCCCCC [Compound 34, (2S,3S,4R)-1-(α-D-galactopyranosyloxy)-2-octacosanoylamino-3,4-heptadecanediol] | – | 272% | 183% | 150% | 467% | 258% | 291% | 10 mice | 10 mice | 10 mice | 9 mice | 9 mice | 9 mice | 9 mice | 24.4 ± 5.6 × 10^4 /μl | 110.1 ± 9.0 × 10^4 /μl

Source: US6071884A, “Pharmaceutical compositions and therapeutic methods” (Kirin Beer Kabushiki Kaisha, priority 1992, dated 2000)
